Results as given in patent US20060223775A1 (priority 1992, published 2006).

Legend:
Assay type in all cases: cell-based
[1] = tested on: luciferase gene under the control of a promoter activated by tTA; test: Luciferase expression in clone NBK.MZ.tTA-2 electroporated with pUHC13-1
Protocol: Selected stably transfected NBK324 clones (G418 selection) were assayed for luciferase expression upon transient transfection (in absence or presence of tetracycline) with the plasmid pUHC13-1 (Gossen and Bujard). The plasmid pUHC13-1 is an expression vector containing the luciferase gene under the control of a promoter activated by tTA.
The best clone selected, NBK.MZ.tTA-2, upon electroporation at 230 volts and 1050 μF with 4 μg of pUHC13-1 is charaterized by the following results (expressed in relative luciferase unit rlu/μg protein): […]

[2] = tested on: normal (NHF) human fibroblast; test: Cell killing mediated by MVM-TK virions and gancyclovir (WST-1 colorimetric assay); settings: mock or MVM-TK infected, WST-1, daily
Protocol: (§1) The efficiency and selectivity of cells killing mediated by the MVM/P387-TK virions and gancyclovir were assessed by infecting normal (NHF) and transformed (NBK) human fibroblast. The results of said experiments are described in the enclosed FIGS. 8 and 9.
(§2) Cell growth was daily monitored with the WST-1 colorimetric assay (Boehringer).
(§3) In FIG. 9, NHF and NBK cells were infected at different MoI and the cell survival was assessed after 4 days with the WST-1 assay in presence or absence of GCV.

[3] = tested on: transformed (NBK) human fibroblast; test: as above; settings: WST-1, daily
Protocol: as §1, §2, §3

CN(C)[C@@H]1C(O)=C(C(N)=O)C(=O)[C@@]2(O)C(O)=C3C(=O)c4c(O)cccc4[C@@](C)(O)[C@H]3C[C@@H]12 [tetracycline]
luciferase expression (relative luciferase unit) ([1]; tetracycline 10 ng ml, 4 μg pUHC13-1, 230 volts, 1050 μF): 19212 rlu/μg protein
luciferase expression (relative luciferase unit) ([1]; tetracycline 100 ng/ml, 4 μg pUHC13-1): 2268 rlu/μg protein
luciferase expression (relative luciferase unit) ([1]; tetracycline 1 μg/ml, 4 μg pUHC13-1): 1568 rlu/μg protein

Nc1nc(O)c2ncn(COC(CO)CO)c2n1 [GCV, gancyclovir]
cell growth at different GCV concentrations [2]: not affected
GCV concentration at which growth was severely suppressed ([3]; MVM-TK infected NBK): ≥ 3 µg/mL
cell growth at different GCV concentrations ([3]; mock infected NBK): not affected
